# Measurements taken from patent US20230250094A1, “SMALL MOLECULE INHIBITORS OF TDP-43 ACTIVITY AND USES THEREOF” (Arizona Board of Regents on Behalf of the University of …, priority 2020, published 2023).
# Entries after “also recorded” stand apart in the source; their conditions may differ.
# Columns and labels:
# [1] = molecular target: T1, TDP43-EGFP (Homo sapiens, UniProt Q13148); test: TDP43-EGFP in rodent primary cortical neurons, automated fluorescence microscopy; assay type: cell-based, rat; conditions: 5 to 100 μM
# T1 construct: expressed in transfected cells; host or cells: primary cortical neurons from embryonic day 20-21 Long Evans rat pups
# Procedure: (§1) FIG. 6. nTRD22 effect on primary cortical neurons. Confocal images of rodent primary cortical neurons with transfected TDP43-EGFP with A. DMSO, or B. […] nTRD22. Quantitation of GFP signal in TDP-43-EGFP (C) or EGFP (D) transfected primary neurons treated with increasing concentration of nTRD22 or DMSO. Data is presented as mean±SEM (n≥183 neurons from 8 technical and 3 biological replicates). Statistical difference was assessed by a Kruskal-Wallis test (*** p<0.001; **p=0.01).
# (§2) To test this, TDP-43 fused to enhanced green fluorescent protein (TDP43-EGFP) was expressed in rodent primary cortical neurons, applied nTRD22 at concentrations ranging from 5 to 100 μM, and imaged GFP positive cells by automated fluorescence microscopy^1819. […] No changes in the fluorescence of control cells transfected with EGFP was observed (FIG. 6D).
# (§3) Cell culture and transfection. […]
# (§4) Fluorescence microscopy. […]
# (§5) Image analysis. Custom ImageJ/Fiji macros and Python scripts (described in PMC6050042) were used to identify neurons and draw regions of interest (ROIs) based upon size, morphology, and fluorescence intensity. Additional scripts were used to identify and draw regions of interest (ROIs) surrounding each cell, and measure fluorescence intensity within individual ROIs. […]
# [2] = molecular target: T2, TDP-431-260 (Homo sapiens, UniProt Q13148); test: STD-NMR screening of compound binding to TDP-43 1-260; conditions: 500 μM compound, 5 μM protein
# T2 construct: Human TDP-431-260 and TDP43102-269 were expressed as described in our previous studies; made in house
# Procedure: (§6) FIG. 2. STD-NMR screening for compounds. A. Two different constructs were used for STD-NMR screening. 1D ^1H STD NMR showing on-resonance difference spectrum of 500 μM of compounds nTRD09-16 (B) or nTRD19-28 (C) with 5 μM TDP431-260. D. Positive hits from the first round of STD-NMR screening were tested against TDP43102-269 in the same conditions. Asterisks indicate positive signal.
# (§7) Saturation transfer difference nuclear magnetic resonance (STD-NMR) spectroscopy was then used to screen the binding of the compounds to TDP-431-260. As a negative control, binding to TDP43102-269 lacking the NTD was also determined (FIG. 2A). […]
# (§8) Saturation Transfer Difference Nuclear Magnetic Resonance (STD-NMR). Spectroscopy for small molecule binding. 1D ^1H STD-NMR was performed exactly as previously described (see, Frangois-Moutal, L.; et al., ACS Chem. Biol. 2019, 14, 2006-2013; Frangois-Moutal, L.; et al., ACS Chem. Biol. 2018, 13, 3000-3010).
# [3] = molecular target: T2, TDP-431-260; test: Microscale thermophoresis (MST); assay type: binding; conditions: NT-647 labeled TDP431-260, 0.03 μM-1 mM compound, mean±SD n=3; read-out: apparent Kd
# Procedure: FIG. 3. Modeling of binding and affinity of nTRD22 for TDP-43. A. Structure of N-(2-(3-hydroxypiperidin-1-yl)ethyl)-5-((3-(trifluoromethyl)phenoxy)methyl)isoxazole-3-carboxamide (nTRD22). B. 2D representation of nTRD22 binding pocket in TDP-43 NTD. C. MST values from thermographs of NT-647 labeled TDP431-260 in presence of increasing concentrations (0.03 μM-1 mM) of nTRD22 were used to determine dissociation constant for binding of nTRD22 to TDP431-260. […] Data is presented as mean±SD (n=3).
# In-silico docking of nTRD22 predicted interactions with Q3, Y43, S48, G59, and A66 (FIG. 3A). ^1H-NMR of nTRD22 was used to evaluate the on-resonance energy transfer from STD-NMR of nTRD22 with TDP-431-260. The peaks seen in the STD-NMR spectrum were in the region of the benzyl group (ii, 6.9-7.2 ppm) (FIG. 2C) confirming the […] interaction of the benzene group of nTRD22 with Tyr43, predicted by virtual screening.
# Microscale Thermophoresis (MST). Microscale thermophoresis experiments were performed using a NanoTemper Monolith Instrument (NT.115), similarly to Frangois-Moutal, L.; et al., ACS Chem. Biol. 2019, 14, 2006-2013.
# [4] = molecular target: T3, TDP43102-269 (Homo sapiens, UniProt Q13148); test: STD-NMR negative control on TDP43 102-269 lacking the NTD; assay type: binding; conditions: same conditions, negative control construct
# T3 construct: made in house
# Procedure: as §6, §7, §8
# [5] = molecular target: T4, TDP-43102-269 (RRM region) (Homo sapiens, UniProt Q13148); test: 2D 15N-HSQC NMR of TDP43 102-269 (RRM region) with compound; assay type: binding; conditions: 4:1 molar ratio
# T4 construct: made in house
# Procedure: (§9) To further characterize where nTRD22 binds on TDP-43, perturbations were measured using a 2D ^15N-HSQC NMR with increasing concentrations of nTRD22, up to a 8:1 molar ratio of nTRD22:TDP-431-260 (FIG. 4). […] To determine if these shifts were due to direct binding of nTRD22 to TDP-43102-269 (RRM region), a 2D ^15HSQC-NMR on TDP43102-269 with nTRD22 at a 4:1 molar ratio was collected (FIG. 4D, E).
# (§10) Heteronuclear Single Quantum Correlation-NMR (HSQC-NMR). NMR spectra were acquired in 40 mM HEPES pH 6.5, 500 mM NaCl, 4 mM DTT with 10% D20 at 100 μM protein concentrations using 5 mm Shigemi NMR tubes. NMR data were collected at 298 K on a Bruker Avance NEO 600 MHz and 800 MHz spectrometers with TCI-H&F/C/N probe. NMR processing and analysis was done using NMRpipe, NMRDraw and NMRFAM-Sparky. Transverse relaxation optimized spectroscopy (TROSY) was used for all HSQC experiments.
# [6] = molecular target: T2, TDP-431-260; test: 2D 15N-HSQC NMR of TDP-43 1-260 with compound; assay type: binding
# Procedure: 2D ^15N-HSQC NMR spectrum of each positive hit was tested to further define the binding sites of the small molecule interactions with TDP-43 (FIG. 9). Using TDP-431-260, small molecules were added at a 4:1 molar ratio.
# as §9, §10
# [7] = molecular target: T5, TDP-431-260 binding to its canonical RNA sequence (UG6) (Homo sapiens, UniProt Q13148); test: Amplified luminescent proximity homogeneous alpha assay (ALPHA), RNA/TDP-43 disruption; conditions: TDP-431-260-His 0.75 nM, biotinylated-UG6 RNA 0.6 nM; read-out: IC50 of disruption of TDP-431-260 / UG6 RNA interaction
# T5 construct: TDP-431-260-His (0.75 nM) and a single concentration of biotinylated-UG6 RNA (0.6 nM); made in house
# Procedure: FIG. 5. RNA/TDP-43 disruption by nTRD22. A concentration-dependent curve was obtained for nTRD22's disruption of nucleic acid-TDP-431-260 interaction at a single RNA concentration (0.6 nM). Data is represented as mean±SEM (n=3).
# To define which residues in the RRM domains were affected, the chemical-shift perturbations (CSP) induced by nTRD22 were mapped onto the known structure of TDP-43102-269 (PDB: 4bs2^15) using a color gradient (FIG. 4F,G). […] More precisely, L106/1107 and G148/V150 are part of RNP-2 and RNP-1 of RRM1 respectively, while C196 is part of RNP-2 in RRM2^16. Moreover, C173 is also shown to be affected in presence of RNA^15. […] It should be noted that in repeated experiments, different residues are shifted and although one representative spectrum is shown here (FIG. 4), the average shift from three experiments are also reported (FIG. 10). […] To test this, an amplified luminescent proximity homogeneous (alpha) assay recently developed for another compound targeting TDP-43^17 was used. TDP-431-260 binding to its canonical RNA sequence (UG6) was measured with ranging concentrations of compound and nTRD22 was able to inhibit 50% of the interaction with an IC50 of ˜100 μM (FIG. 5).
# Amplified luminescent proximity homogeneous alpha assay (ALPHA). […]
# [8] = test system: Drosophila overexpressing TDP-43; test: Climbing (negative geotaxis) assay in Drosophila model of ALS overexpressing TDP-43; assay type: in vivo; conditions: fly food supplemented with 50 μM
# [9] = test system: EGFP; test: EGFP control-transfected rodent primary cortical neurons, fluorescence; assay type: cell-based, rat; conditions: 5 to 100 μM
# Procedure: as §1, §2, §3, §4, §5
# T2 sequence (Q13148 1-260 limits assumed): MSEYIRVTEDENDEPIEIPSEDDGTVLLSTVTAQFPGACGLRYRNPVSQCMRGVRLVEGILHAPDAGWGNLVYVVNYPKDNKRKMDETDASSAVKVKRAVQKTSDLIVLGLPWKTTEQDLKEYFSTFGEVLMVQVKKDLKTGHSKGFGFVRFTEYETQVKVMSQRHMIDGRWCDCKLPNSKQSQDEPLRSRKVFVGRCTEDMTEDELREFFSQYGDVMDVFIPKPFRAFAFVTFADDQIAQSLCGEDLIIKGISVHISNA
# T1 sequence (Q13148 whole entry): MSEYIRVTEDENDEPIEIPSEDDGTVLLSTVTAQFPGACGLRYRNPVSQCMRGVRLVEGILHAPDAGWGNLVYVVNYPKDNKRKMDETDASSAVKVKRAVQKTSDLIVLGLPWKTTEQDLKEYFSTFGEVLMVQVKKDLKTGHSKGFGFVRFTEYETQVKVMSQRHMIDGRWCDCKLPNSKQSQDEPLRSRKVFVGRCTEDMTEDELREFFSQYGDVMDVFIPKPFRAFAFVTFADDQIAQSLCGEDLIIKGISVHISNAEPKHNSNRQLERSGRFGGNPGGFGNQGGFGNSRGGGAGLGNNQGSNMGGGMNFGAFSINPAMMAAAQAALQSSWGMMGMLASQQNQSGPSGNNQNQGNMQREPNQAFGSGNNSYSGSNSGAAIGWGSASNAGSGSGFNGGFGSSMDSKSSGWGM
# T3 sequence (Q13148 102-269): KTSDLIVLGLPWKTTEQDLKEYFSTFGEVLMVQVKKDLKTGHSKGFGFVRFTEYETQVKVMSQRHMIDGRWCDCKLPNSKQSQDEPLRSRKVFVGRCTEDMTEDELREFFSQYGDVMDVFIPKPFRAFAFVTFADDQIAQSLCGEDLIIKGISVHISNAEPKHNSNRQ
# T4 sequence (Q13148 102-269 limits assumed): as the sequence (Q13148 102-269) above
# T5 sequence (Q13148 1-260 limits assumed): as the sequence (Q13148 1-260 limits assumed) above
structure (smiles),measurement,setting,value
"O=C(NCCN1CCCC(O)C1)c1cc(COc2cccc(C(F)(F)F)c2)on1 (stereo not drawn) [nTRD22, N-(2-(3-hydroxypiperidin-1-yl)ethyl)-5-((3-(trifluoromethyl)phenoxy)methyl)isoxazole-3-carboxamide]",TDP43-EGFP steady state levels (GFP signal),[1],dose-dependent reduction
same,intranuclear TDP43-EGFP droplet-like structures,[1],formation of intranuclear TDP43-EGFP droplet-like structures
same,STD-NMR binding to TDP-431-260,[2],positive hits
same,Kd,[3],145 ± 3 µM
same,STD-NMR binding to TDP43102-269 (lacking NTD),[4],did not
same,2D 15N-HSQC chemical shifts on TDP43102-269,[5],No shifts were observed
same,2D 15N-HSQC: aggregation / chemical shift perturbations,"[6]; compound:protein 4:1 molar ratio, 100 μM protein",no protein aggregation with visible chemical shift perturbations
same,2D 15N-HSQC chemical shifts on titration,[6]; increasing concentrations up to 8:1 molar ratio nTRD22:TDP-431-260,the majority of them occurring in the RRM region of the protein
same,IC50,[7],~100 µM
same,climbing / motor performance in young (5-6 dpe) and aged (19-20 dpe) flies,[8]; versus DMSO 0.05%,rescue effect was increased in aged flies; also recorded: increased motor performance
same,climbing / motor performance versus DMSO treated or naive flies,[8]; n=60,significantly able to rescue climbing defects; also recorded: increased motor performance
same,fluorescence of control cells transfected with EGFP,[9],No changes
